Assays:
[1] = system: macrophages from human PBMC; test: TNF alpha production assay (LPS-stimulated macrophages, ELISA); format: cell-based; conditions: 10 micrograms per ml, lipopolysaccharide 200 ng/ml, overnight
Text: Not stimulated macrophages served as negative background control.

RAW 264.7 cells = test: Phagocytosis assay (Fluorescein-labeled Escherichia coli); format: cell-based, mouse; conditions: 10 micrograms per ml, flow cytometry
HCMV strain AD169 = test: HCMV plaque reduction assay in MRC-5 cells; format: cell-based; conditions: HCMV in MRC-5 cells; peptide 10 micrograms per ml; 7-10 days
Text: Ganciclovir was used as positive control.

Streptococcus pneumoniae = format: cell-based; conditions: 10 micrograms per ml
in vitro [2] = conditions: human
MRSA = conditions: 10 micrograms per ml
HUVEC = test: Endothelial tube formation assay; format: cell-based, human; conditions: 10 micrograms per ml, 20 hours
Text: Positive control was vehicle only.

[3] = system: Human Peripheral Blood Mononuclear Cells (PBMC); test: T cell proliferation assay (PHA, 3H-thymidine); conditions: 10 micrograms per ml
in vitro [4] = conditions: human, MRC-5 cells (human embryonal lung fibroblasts)
Description: The following day, peptide were added and tested in duplicates.

Human A549 cells [5] = test: Apoptosis induction assay (Annexin-5); format: cell-based; conditions: 10 micrograms per ml, 24 hours
Text: Human A549 cells (carcinomic human alveolar basal epithelial cells) were utilized in the experiments employing the Annexin-5 apoptosis assay.

Human A549 cells [6] = test: Apoptosis prevention assay (C2 ceramide, Annexin-5); format: cell-based; conditions: 30 min pretreatment with 10 micrograms per ml
[7] = system: Primary Human endothelial cells (HUVEC); test: Endothelial cell migration assay; format: cell-based; conditions: 10 micrograms per ml, 22 hours
in vitro [8] = conditions: human, CEM-SS cells
HIV-1IIIB = test: HIV-1 antiviral assay (CPE reduction) in CEM-SS cells; format: cell-based; conditions: peptide 10 micrograms per ml; 6 days post-infection; MTS
[9] = system: hepatitis B virus (HBV) ayw strain; test: HBV experimental assay system (secreted HBV DNA, TaqMan PCR); conditions: HepG2-2.2.15; peptide 10 micrograms per ml; six days; HBV DNA in supernatant
Pseudomonas aeruginosa = format: cell-based; conditions: 10 micrograms per ml
Human A549 cells [10] = test: Propidium iodide cell cycle assay; format: cell-based; conditions: 10 micrograms per ml, 24 hours, FACS
Text: The cell cycle consists of four distinct phases: […]

[11] = system: spleen cells of Ovalbumin-immunized Balb/c mice; test: Th1/Th2 cytokine profiling assay; format: cell-based, mouse; conditions: 10 micrograms per ml; Ovalbumin restimulation; 72 hours
[12] = system: Human Peripheral Blood Mononuclear Cells (PBMC); test: B cell proliferation assay (SAC plus IL-2, 3H-thymidine); conditions: 10 micrograms per ml

## CCNC(=O)[C@@H]1CCCN1C(=O)[C@H](CCCNC(=N)N)NC(=O)[C@@H](CC(C)C)NC(=O)[C@@H](Cc1cn(Cc2ccccc2)cn1)NC(=O)[C@H](Cc1ccc(O)cc1)NC(=O)[C@H](CO)NC(=O)[C@H](Cc1c[nH]c2ccccc12)NC(=O)[C@H](Cc1c[nH]cn1)NC(=O)[C@@H]1CCC(=O)N1 [D-Leu^7-Histrelin, Pyr-His-Trp-Ser-Tyr-D-His(Bzl)-D-Leu-Arg-Pro-NHEt]
[1]
  % of LPS induction: 111.5%
RAW 264.7 cells
  % of control phagocytosis: 102.9%
HCMV strain AD169
  % plaque reduction: 2.5%
Streptococcus pneumoniae
  % inhibition: 100.0%
In vitro [2]
  viability at 144 h, 10 micrograms per ml: 91.4%
MRSA
  % inhibition: 0.0%
HUVEC
  % inhibition of tube formation: 4%
[3]
  % of PHA induced control: 96.2%
In vitro [4]
  viability at 144 h: 100%
Human A549 cells [5]
  % of induction: 4.3%
Human A549 cells [6]
  % prevention of ceramide induced apoptosis: 0.0%
[7]
  % inhibition of migration: 8%
In vitro [8]
  viability at 10 micrograms per ml: 100%
HIV-1IIIB
  % CPE reduction in HIV-1 infected CEM-SS cells: 0.0%
[9]
  % inhibition of HBV replication in HEP G2 cells: 61.6%
Pseudomonas aeruginosa
  % inhibition: 0.0%
Human A549 cells [10]
  Cell cycle analysis G0/G1: 58.9
  Cell cycle analysis G2/M: 9.7
  Cell cycle analysis S: 31.4
[11]
  IFNγ spleen cells; TH1 response (% of control): 69.2 % of control
  IL-2 spleen cells (% of control): 155.8 % of control
  IL-4 spleen cells; TH2 response (% of control): 235.7 % of control
  IL-5 spleen cells; TH2 response (% of control): 93.0 % of control
  TNF-a spleen cells; TH1 response (% of control): 116.4 % of control
[12]
  % of SAC/IL2 induced control: 92.6%
